“Also recorded” adds a separate entry of the source.
Tests used:
[1] = tested on: caspase-1, GSDMD, and pro-IL-1β; assay: Caspase-1, GSDMD, pro-IL-1β cleavage and IL-1β secretion by immunoblot, THP-1; format: cell-based, human
[2] = tested on: HEK293T cells; assay: LDH release of HEK293T cells expressing caspase-11 and GSDMD; format: cell-based
Method: FIG. 72 contains a bar graph showing results of an experiment when FL human WT or C191S GSDMD were co-expressed with caspase-11 in HEK293T cells. 8 h post transfection, the indicated amount of disulfiram was added and cell death was determined by LDH release 12 h later.
(§1) Cytotoxicity and cell viability assays: cell death and cell viability were determined by the lactate dehydrogenase release assay using the CytoTox 96 Non-Radioactive Cytotoxicity Assay kit (Promega) and by measuring ATP levels using the CellTiter-Glo Luminescent Cell Viability Assay (Promega), respectively, according to the manufacturer's instructions. Luminescence and absorbance were measured on a BioTek Synergy 2 plate reader.
To further confirm that disulfiram acts on Cys191, disulfiram inhibition of LDH release in HEK293T cells expressing caspase-11 and WT or C191S GSDMD was assessed.

[3] = tested on: IL-1β; assay: IL-1β secretion by ELISA, iBMDM with LPS transfection; format: cell-based, mouse; details: 40 μM
Method: Measurement of cytokines: concentrations of IL-1 (3 in culture supernatants or mouse serum were measured by ELISA kit (R&D Systems) according to the manufacturer's instructions. […] The number of surviving cells was determined by CellTiter-Glo assay (FIGS. 4 and 6) and IL-1β in culture supernatants was assessed by ELISA (FIG. 8) 2 hrs later. […] The number of surviving cells was determined by CellTiter-Glo assay (FIGS. 5 and 7) and IL-1β in culture supernatants was assessed by ELISA (FIG. 9) 2.5 hrs later.

[4] = tested on: HT-29 cells; assay: Necroptosis induced by TNFα, SMAC mimetic and z-VAD-fmk; format: cell-based; details: SMAC mimetic
Description: Inhibition was shown by cell survival, assessed by CellTiter-Glo ATP luminescence, and membrane permeabilization, assessed by uptake of the membrane-impermeable dye SYTOX Green.

[5] = tested on: LPS-induced sepsis in C57BL/6 mice; assay: LPS-induced sepsis in mice, survival; format: in vivo, mouse
Method: Mice. 8-week-old female C57BL/6 wild-type mice were purchased from The Jackson Laboratory and maintained at the SPF facility at Harvard Medical School. All mouse experiments were conducted using protocols approved by the Animal Care and Use Committees of Boston Children's Hospital and Harvard Medical School.
Drug administration and LPS-induced sepsis in mice. […] In the indicated group of mice in FIG. 5h, copper gluconate (0.15 mg/kg) was administered intraperitoneally 6 hr prior to the first injection of DSF. Sepsis was induced in C57BL/6 mice (8-10 weeks old) by intraperitoneal injection of LPS (E. coli O111:B4) at indicated concentrations. In some experiments, mice were treated with copper gluconate (0.15 mg/kg) or vehicle by intraperitoneal injection 5 hr before LPS challenge and then given DSF (50 mg/kg) intraperitoneally dissolved in sesame oil or vehicle 4 hr before and just before LPS challenge (15 mg/kg intraperitoneally). Peritoneal cells were collected by rinsing the peritoneal cavity with ice cold PBS containing 3% FBS 6 hr after LPS challenge. To measure cytokines, blood samples were collected by tail vein bleed 12 hr post LPS challenge and allowed to clot at room temperature. Sera obtained after centrifugation at 2,000×g for 10 min were analysed for inflammatory cytokines by ELISA.
Cell death was determined by CytoTox96 assay. […] Statistical analysis was performed using the log-rank test (In FIGS. 14, 16, 17, mice/group). […] Serum was obtained 12 hrs post LPS challenge. Shown are mean±s.d. […] Statistical analysis was performed using the log-rank test (8 mice/group).

[6] = tested on: mouse iBMDMs; assay: Non-canonical inflammasome pyroptosis, iBMDMs with LPS electroporation; format: cell-based
Method: Cell lines and treatments: THP-1 cells and HEK293T cells (obtained from ATCC) were grown in RPMI with 10% heat-inactivated fetal bovine serum, supplemented with 100 U/ml penicillin G, 100 μg/ml streptomycin sulfate, 6 mM HEPES, 1.6 mM L-glutamine, and 50 μM 2ME. C57BL/6 mouse iBMDM cells were kindly provided by J. Kagan (Boston Children's Hospital) and cultured in DMEM with the same supplements. Cells were verified to be free of mycoplasma contamination. Transient transfection of HEK293T cells was performed using Lipofectamine 2000 (Invitrogen) according to the manufacturer's instructions. iBMDM cells were transfected by nucleofection using the Amaxa Nucleofector kit (VPA-1009). […] To examine IκBα. phosphorylation and degradation as well as IL-1β induction, PMA-differentiated THP-1 cells were stimulated with LPS (1 μg/ml) for 0.5, 1 and 4 hrs, respectively. For noncanoical inflammasome activation, 1 million iBMDM cells were electroporated with 1 μg ultra LPS.
as §1
In FIGS. 4, 6, and 8, PMA-differentiated LPS-primed human THP-1 were pre-treated with indicated concentrations of each compound for 1 h before adding nigericin or medium. The number of surviving cells was determined by CellTiter-Glo assay (FIGS. 4 and 6) and IL-1β in culture supernatants was assessed by ELISA (FIG. 8) 2 hrs later. In FIGS. 5, 7, and 9, mouse iBMDMs were pre-treated with each test compound for 1 hr before electroporation with PBS or LPS. The number of surviving cells was determined by CellTiter-Glo assay (FIGS. 5 and 7) and IL-1β in culture supernatants was assessed by ELISA (FIG. 9) 2.5 hrs later. In FIGS. 8 and 9, 40 μM concentration of test compounds were added.

[7] = tested on: THP-1 cells; assay: Canonical inflammasome pyroptosis, LPS-primed THP-1 cells plus nigericin; format: cell-based, human; details: THP-1, nigericin
Method: Cell viability assay. […] Primed THP-1 cells were pretreated with each test compound for 1 hr before addition of 20 μM nigericin or medium as control. The number of surviving cells was determined by CellTiter-Glo assay 1.5 hrs later. The final percent cell viability was calculated using the formula [(luminescencetest compound−luminescencencenegative control)/(luminescencencepositive control−luminescencenegative control)]×100, where wells with only LPS were used as positive controls and wells treated with LPS and nigericin were used as negative controls.
In FIGS. 4, 6, and 8, PMA-differentiated LPS-primed human THP-1 were pre-treated with indicated concentrations of each compound for 1 h before adding nigericin or medium. The number of surviving cells was determined by CellTiter-Glo assay (FIGS. 4 and 6) and IL-1β in culture supernatants was assessed by ELISA (FIG. 8) 2 hrs later. […] In FIGS. 8 and 9, 40 μM concentration of test compounds were added. […] Graphs show the mean±s.d. and data shown are representative of three independent experiments. **P<0.01.

| SMILES | caspase-1, GSDMD, pro-IL-1β processing and IL-1β secretion ([1]; 1 μM with copper gluconate) | caspase-1, GSDMD, pro-IL-1β processing and IL-1β secretion ([1]; 1 μM without copper) | C191S GSDMD-induced cell death (LDH release) ([2]; caspase-11 plus C191S GSDMD) | WT GSDMD-induced cell death (LDH release) ([2]; caspase-11 plus WT GSDMD) | LPS transfection-induced IL-1β secretion [3] | necroptosis [4] | survival ([5]; LPS 15 mg/kg, 50 mg/kg ip 24 and 4 hrs before, 96 hrs) | survival ([5]; LPS 25 mg/kg, 50 mg/kg ip 24 and 4 hrs before) | survival ([5]; LPS 25 mg/kg, 50 mg/kg ip post LPS, with copper gluconate 0.15 mg/kg) | survival ([5]; LPS 25 mg/kg, 50 mg/kg ip post LPS, without copper) | survival ([5]; LPS 50 mg/kg, 50 mg/kg ip 24 and 4 hrs before) | survival of Casp11−/− mice ([5]; LPS challenge) | survival of Gsdmd−/− mice ([5]; LPS challenge) | survival of Casp1−/− mice ([5]; lethal LPS challenge) | inhibition of non-canonical inflammasome pyroptosis [6] | inhibition of canonical inflammasome pyroptosis [7] |
| --- | --- | --- | --- | --- | --- | --- | --- | --- | --- | --- | --- | --- | --- | --- | --- | --- |
| CCN(CC)C(=S)SSC(=S)N(CC)CC [C-23, Tetraethylthiuram disulfide] | completely blocked | had no effect | only inhibited when 4 times as much disulfiram was added | strongly inhibited | potency comparable to the pan-caspase inhibitor z-VAD-fmk | had no effect on necroptosis | all the disulfiram-treated mice survived | 5 of 8 | 2 of 8 | died | 1 of 8 | did not significantly affect the survival | did not significantly affect the survival | protected |  |  |
| Cc1ccc(S(=O)(=O)/C=C/C#N)cc1 [Bay 11-7082] |  |  |  |  |  |  |  |  |  |  |  |  |  |  | less active than disulfiram | also inhibits the canonical inflammasome pathway; also recorded: more effective at inhibiting canonical inflammasome-dependent pyroptosis than disulfiram in the absence of copper |
